Reference: the NIST ThermoML archive (doi:10.1021/je2005402)
Numbers after ± are expanded uncertainties.

Settings: Liquid, Ebulliometric method (Recirculating still)

Row | Compound | vapor or sublimation pressure (363.25 K) [kPa] | vapor or sublimation pressure (337.85 K) [kPa]
1 | COC(=O)OC [dimethyl carbonate] | 101.32 ± 1.1 | 
2 | CO [methanol] |  | 101.32 ± 1.1
